Patent publication US5877026A, “Analgesic peptides from venom of Grammostola spatulata and use thereof” (priority 1998, dated 1999)
Where no end group is shown, it is not given here.

How the values were obtained:
Assay type in all cases: in vivo, rat
Sprague-Dawley rats = test: von Frey filament threshold
Text: In this test filaments of increasing thickness are applied to the dorsal surface of a hindlimb until the rat either voluntarily removes the appendage with a forcible escape movement or vocalizes. The thickness of the filaments are arbitrarily labelled with a value which can be transformed into a grams force reading according to the following equation: [formula] Data are expressed either as absolute gram force values or a percentage of the maximum possible effect (MPE) as described in the following equation: [formula]

Sprague Dawley rats [1] = test: Acute inflammatory pain, carrageenan paw withdrawal latency; conditions: for Mean Latency Time In Seconds ± SEM, 30 minutes post treatment / Mean Latency Time In Seconds ± SEM, 60 minutes post treatment: 3 nmol intrathecal cannula; for Mean Latency Time In Seconds ± SEM, 30 minutes post treatment: given after 150 min post carrageenan; for Mean Latency Time In Seconds ± SEM, 60 minutes post treatment: predetermined cut-off value 20.8 sec
Procedure: Tissue injury results in inflammation and hyperalgesia (i.e. increased magnitude or duration of pain response to supra threshold noxious stimuli) at both the site of injury and at adjacent tissue sites. To assess the anti-hyperalgesic activity of GsAF II in inflammatory pain conditions, paw withdrawal latencies were determined in adult 350-400 gram male Sprague Dawley rats following the unilateral injection of carrageenan, a seaweed extract, into the hindpaw in accordance with the method of Hargreaves et al, Pain, 32:77-88, 1988. Briefly, withdrawal latencies are measured by placing the rat on a glass plate and focusing radiant heat from the underside of the plate toward the hindpaw surface. Latencies values are recorded in seconds to withdrawal of the hindpaw from the surface of the plate. Basal measurements are made prior to injection of the carrageenan (4 mg/hindpaw), followed by a measurement at 150 min post carrageenan injection to obtain the level of hyperalgesic response. Subsequent to the second measurement, GsAF II or vehicle (i.e. 0:1% BSA/saline) is administered through an indwelling intrathecal cannula positioned within the lumbar enlargement of the spinal cord. Anti-hyperalgesic activity is determined by measuring paw withdrawal latencies at various time intervals following compound administration. Concurrent with the paw withdrawal latencies, physical measurements of paw volume and paw temperature are recorded to detect anti-inflammatory and anti-pyretic activities.

opioid receptors = test: Opioid receptor testing (opioid antagonist pretreatment)
Procedure: Animals were then tested in the tail flick test (Example 3) and von Frey tests (Example 5).

Sprague Dawley rats [2] = conditions: i.th.; two treatment arms
[3] = 3 nmol group (n = 4), before compound administration

YCQKWMWTCDEERKCCEGLVCRLWCKKKIEW (cysteine pairing not given here) [GsAF II]
MPE, von Frey threshold (Sprague-Dawley rats; 2.33 nanomole (9.27 micrograms), 30 minutes post injection): 83% | rats demonstrating maximal analgesic activity (100% MPE), von Frey (Sprague-Dawley rats; 2.33 nanomole (higher dose), 30 minutes post injection): 75% | MPE, von Frey threshold (Sprague-Dawley rats; 583 picomole (2.32 micrograms), 30 minutes post injection): 48% | Mean Latency Time In Seconds ± SEM, 150 minutes post carrageenan injection (Sprague Dawley rats [1]; [3]): 3.0 ± 0.81 s | Mean Latency Time In Seconds ± SEM, base latency prior to carrageenan injection (Sprague Dawley rats [1]; [3]): 8.3 ± 1.2 s | Mean Latency Time In Seconds ± SEM, 30 minutes post treatment (Sprague Dawley rats [1]): 17.82 ± 3.78 s | Mean Latency Time In Seconds ± SEM, 30 minutes post treatment (Sprague Dawley rats [1]; listed as GsAFII): 17.82 ± 3.78 s | Mean Latency Time In Seconds ± SEM, 60 minutes post treatment (Sprague Dawley rats [1]): 20.8 s | Mean Latency Time In Seconds ± SEM, 60 minutes post treatment (Sprague Dawley rats [1]; listed as GsAFII): 20.8 ± 0.00 s | confounding motor deficits or overt negative side effects (Sprague Dawley rats [1]; 3 nmoles intrathecal): no indication | hyperalgesic, thermal-induced response (Sprague Dawley rats [1]; 3 nmoles intrathecal): completely reversed | paw temperature (Sprague Dawley rats [1]; 3 nmoles intrathecal): No significant reduction | paw volume (Sprague Dawley rats [1]; 3 nmoles intrathecal): No significant reduction

Tyr-Cys-Gln-Lys-Trp-Leu-Trp-Thr-Cys-Asp-Ser-Glu-Arg-Lys-Cys-Cys-Glu-Asp-Met-Val-Cys-Arg-Leu-Trp-Cys-Lys-Lys-Arg-Leu-NH2 (YCQKWLWTCDSERKCCEDMVCRLWCKKRL-NH2; cysteine pairing not given here) [GsAF I]
effect of B-funaltrexamine pretreatment on analgesic activity (opioid receptors; B-funaltrexamine 5 micrograms i.th. 18 hours prior, hot plate test or formalin test): failed to inhibit | effect of intrathecal naloxone on analgesic response (opioid receptors; naloxone 50 μg i.th. immediately prior, 180 pmoles i.th., measured 10 minutes later): failed to inhibit | effect of naloxone pretreatment on analgesic activity (opioid receptors; naloxone 10mg/kg subcutaneous 5 minutes prior, 180 pmoles i.th., measured 10 minutes later, tail flick and von Frey tests): failed to inhibit | MPE, von Frey threshold (Sprague-Dawley rats; 18 picomole (6.6 nanograms), one hour pretreatment): 22 % MPE | MPE, von Frey threshold (Sprague-Dawley rats; 18 picomoles (66 nanograms), 30 minutes post injection): 24 % MPE | confounding side effects (Sprague-Dawley rats; 180 and 18 picomoles): No confounding side effects were present | MPE, von Frey threshold (Sprague-Dawley rats; 180 picomole, one hour pretreatment): 100 % MPE | MPE, von Frey threshold (Sprague-Dawley rats; 180 picomoles (666 nanograms), 30 minutes post injection): 93 % MPE | dose response properties, morphine treatment versus saline arm (cross tolerance) (Sprague Dawley rats [2]): not significantly different
